One assay relates to Bifidobacterium. As to the kind of experiment: TIM-2 microbiota composition by V4 16S rDNA amplicon sequencing. In kind it is cell-based, human. The note with it: for Average number of the bacterial genus Bifidobacterium: after 120 h of exposure in TIM-2, control 28,345. Here is the method: (§1) Crystalline lactulose was administered daily for 5 days to the TNO Intestinal Model (TIM-2), an in vitro model of the proximal colon. NaOH consumption, short-chain fatty acids (SCFA) production, ammonia production as well as relative abundance of microbiota were analyzed.
(§2) The substance administered in this study was lactulose crystals (S.C.M. Società Chimica Mugello S.r.l., Vicchio, Italy). Experiments without the addition of lactulose served as negative control.
(§3) The TNO Intestinal Model (TIM-2) is a dynamic in vitro model of the proximal colon. The TIM-2 system was inoculated with a highly metabolically active colon microbiota of human origin. In the system the following standardized conditions were simulated: body temperature; pH in the lumen of the proximal colon (pH 5.8); delivery of a substrate from the 'ileum' (SIEM; Standardized Ileum Efflux Medium); mixing and transport of the intestinal contents; anaerobiosis; absorption of water and absorption of fermentation products, metabolites and other low molecular weight compounds (via a semipermeable membrane inside the colon model).
(§4) SIEM simulates material passing the ileocecal valve in humans. It contained the major non-digestible carbohydrates (pectin, xylan, arabinogalactan, amylopectin, starch) found in a normal western diet as well as protein (bactopepton, casein), ox-bile, Tween 80 as well as vitamins and minerals. SIEM was added to the system at a speed of 2.5 mL/h and the speed of the dialysis liquid was 1.5 mL/min. During the experiment, the intestinal contents were mixed continuously by the peristaltic movements of the TIM-2 system. In order to simulate the transit of the chime from proximal to distal colon, 25 mL of the lumen was removed every 24 h and discarded.
(§5) Before performing each experiment, the system was inoculated with a standardized microbiota of human origin. This standardized microbiota was prepared using fecal donations from a group of 4 healthy volunteers (3 females, 1 male, age 38.8 ± 3.9 years; BMI (body mass index) 24.2 ± 1.5 kg/m^2). Individuals provided signed informed consent before participation, were non-smokers and had not used antibiotics, prebiotics, probiotics or laxatives within 1 month before the stool donation.
(§6) At the start of the adaptation period the microbiota was allowed to adapt to the model conditions and SIEM for 16 h. After the adaptation period the 120 h test period started in which lactulose was added to TIM-2 once daily.
(§7) Lactulose was added to the system at daily doses of 2 g, 3 g, 4 g, and 5 g lactulose. Each dose as well as the control experiment was studied in duplicate (n = 2). The test period of the TIM-2 experiments lasted 120 h (5 consecutive days).
(§8) At the beginning and end of the experiment (t = 0 h and t = 120 h) luminal samples were used to investigate the composition of the microbiota. The samples were snap frozen in liquid nitrogen and stored at ≤ -72 °C until analysis.
(§9) The bacterial population in the TIM-2 samples was analyzed using Next Generation sequencing. Total DNA from the collected TIM-2 lumen samples at the start (t = 0 h) and at the end (t = 120 h) of the experiments was isolated. To determine the recovery of bacterial DNA from the samples, a quantitative polymerase chain reaction (qPCR) using primers specific for the bacterial 16S rRNA gene was used. Changes in the microbiota composition were analyzed by using mass V4 16S rDNA amplicon sequencing. Processing of the sequencing data was done using the Mothur pipeline.

For the next assay, the system named is Lactobacillus. Described as above. In kind it is cell-based, human. The conditions noted are these: for Average number of the bacterial genus Lactobacillus: after 120 h of exposure in TIM-2, control 82. As to the method: as §1, §2, §3, §4, §5, §6, §7, §8, §9
Setting [1] is: after 120 h in TIM-2, versus control.

The text below walks through data of patent publication EP3634580B1, “COMPOSITIONS COMPRISING LACTULOSE FOR MAINTAINING OR IMPROVING GUT HEALTH IN HUMANS” (Fresenius Kabi Austria GmbH, priority 2017, dated 2018).

As for `OC[C@H]1O[C@@H](O[C@@H]2[C@@H](CO)OC(O)(CO)[C@H]2O)[C@H](O)[C@@H](O)[C@H]1O` (mixture of isomers) [Lactulose, lactulose], the “abundance of Bifidobacterium (in words)” value in the assay with Bifidobacterium (setting [1]) was “increased the abundance”. The “Average number of the bacterial genus Bifidobacterium” value in the assay on Bifidobacterium (lactulose 2 g daily) is reported as 24,781; in the assay on Bifidobacterium (lactulose 3 g daily), 17,424; with Bifidobacterium (lactulose 4 g daily), 135,876; with Bifidobacterium (lactulose 5 g daily) it was 116,792. In addition, the “abundance of Lactobacillus (in words)” value in the assay with Lactobacillus (setting [1]) was “increased the abundance”. Further, the “Average number of the bacterial genus Lactobacillus” value in the assay with Lactobacillus (lactulose 2 g daily) is given as 1,623; in the assay with Lactobacillus (lactulose 3 g daily) it was 1,504; with Lactobacillus (lactulose 4 g daily), 12,047; in the assay on Lactobacillus (lactulose 5 g daily) it was 912.
